# According to patent US11833225B2, “Methods and compositions for efficient gene deletion” (CRISPR Therapeutics AG, priority 2018, dated 2023):
# Several values for one entry are separate records, joined by “and”; a condition that tells them apart may be missing. Identical values can stand only once.
# B1: HPFH5-5: 3′ gRNA targeting the HPFH5 locus, SEQ ID NO: 4, used with Cas9 protein (nucleic acid)
# guide: CUCCCCCACUCACAGUGACCGUUUUAGAGCUAGAAAUAGCAAGUUAAAAUAAGGCUAGUCCGUUAUCAACUUGAAAAAGUGGCACCGAGUCGGUGCUUUU
# modifications: listed as RNA, chemistry not given here
# B2: HPFH5-1: 3′ gRNA targeting the HPFH5 locus, SEQ ID NO: 2, used with Cas9 protein (nucleic acid)
# guide: AUUUUUCUUAUUCAAUACCUGUUUUAGAGCUAGAAAUAGCAAGUUAAAAUAAGGCUAGUCCGUUAUCAACUUGAAAAAGUGGCACCGAGUCGGUGCUUUU
# modifications: listed as RNA, chemistry not given here
# B3: HPFH5-D: 5′ gRNA targeting the HPFH5 locus, SEQ ID NO: 6, used with Cas9 protein (nucleic acid)
# guide: CUGUUGGUUUCAGAGCAGGUGUUUUAGAGCUAGAAAUAGCAAGUUAAAAUAAGGCUAGUCCGUUAUCAACUUGAAAAAGUGGCACCGAGUCGGUGCUUUU
# modifications: listed as RNA, chemistry not given here
# Columns and labels:
# Assay type in all cases: cell-based, human
# CCR5 gene = test: CCR5 deletion frequency by ddPCR in edited CD34+ cells
# Text: The C-C chemokine receptor type 5 (CCR5) is a key player in HIV infection due to its major involvement in the infection process. A limited number of people harbor a genomic 32-bp deletion in the CCR5 gene ([…]), leading to expression of a truncated gene product that provides resistance to HIV-1 infection in individuals homozygous for this mutation. Dual gRNAs were designed to target this region of the CCR5 gene. FIG. 8 diagrams the CCR5 gene and the location of TB48 gRNA and TB7 gRNA target sites (bordering a 735 bp deletion).
# Human peripheral blood CD34+ cells were cultured and as electroporated with Cas9 and the two gRNAs essentially as described above in Example 1. Nu7441 was delivered to the cells (0, 1.25, 2.5, 5 μM) immediately after electroporation. Deletion efficiency was determined by ddPCR two days after electroporation.
# Additional gRNAs were designed to delete larger segments from CCR5, i.e., TB74 and TB 25 for a 5700 bp deletion, and TB48 and TB25 for a 2672 bp deletion (FIG. 10). The gRNAs (and Cas9) were introduced at two dose levels (0.75 or 1.5 μg each) and cells were exposed to 0, 2.5, or 5 μM Nu7441.
# Another DNA-PK inhibitor, M3814, was tested to determine whether deletions were increased in its presence. Populations of newly electroporated cells were exposed to four concentrations of M3814 ranging from 0.078 μM to 0.625 μM.
# HPFH5 [1] = test: Colony forming assay (CFU), clonal editing analysed by ddPCR
# Description: The effects of Nu7441 on CRISPR-Cas9 gene editing using the dual gRNA approach (HPFH5-1 and HPFH5-D) was measured using a colony forming assay (CFU). CFU assay is an in vitro cellular assay that measures the proliferation and differentiation potential of human HSPCs. Following electroporation with dual gRNAs/Cas9 and treatment with Nu7441 (2.5 μM), CD34+ hHSPCs were diluted and plated in suspension in the presence of methylcellulose to promote stem cell differentiation. After 14 days, colonies grown from single erythroid-lineage HSPCs were analyzed for gene editing by ddPCR (Table 3).
# CD34+ hHSPCs [2] = test: Cell proliferation (fold growth) by hemocytometer counting
# Description: Cell proliferation was also assessed using a cell counting device (hemocytometer).
# HPFH5 [3] = test: Tracking of Indels by Decomposition (TIDE), single gRNA indel and MMEJ species
# Description: Tracking of Indels by Decomposition (TIDE) was utilized to determine if treatment with Nu7441 results in increased single gRNA indels as a result of NHEJ inhibition. This technology precisely determines the spectrum and frequency of indels and MMEJ species generated by single HPFH5-1 gRNA or HPFH5-D gRNAs in the presence of Nu7441 by comparing the results of standard PCR reactions and Sanger sequencing reactions. Cells were electroporated with 1.5 μg Cas and 1.5 μg HPFH5-D or 1.5 μg HPFH5-1 or no gRNA. Cells were treated with 0, 0.625 μM, 1.25 μM, 2.5 μM, or 5 μM Nu7441.
# HPFH5 [4] = test: HPFH5 deletion frequency by droplet digital PCR (ddPCR) in edited CD34+ hHSPCs; details: increased from 30% without inhibitor, dose-dependent, 0.3125-5 μM; Cas9 + dual gRNAs; 48 hours post electroporation
# Description: Mobilized human peripheral blood (mPB) CD34+ cells from three independent human donors were cultured in serum free CellGro® media including 100 ng/ml recombinant human stem cell factor (SCF), 100 ng/ml recombinant human Flt 3-Ligand (FLT3L), and 100 ng/ml Thrombopoietin (TPO). 100,000 cells per condition were electroporated using Lonza Amaxa 4D electroporator without any CRISPR/Cas9 editing components as a negative control (mock electroporation sample), with HPFH5-1+HPFH5-D sgRNAs and Cas9 protein (1+D), or with HPFH5-5+HPFH5-D sgRNAs and Cas9 protein (5+D). The recombinant S. pyogenes Cas9 protein was flanked by two SV40 nuclear localization sequences (NLSs). These experiments were performed using a ribonucleoprotein (RNP) 1:1 weight ratio of gRNA to Cas9.
# The deletion frequency was determined by droplet digital PCR (ddPCR) two days after electroporation for each cell population (i.e., mock, 1+D, and 5+D).
# Dual gRNAs (HPFH5-1 and HPFH-D, or HPFH5-5 and HPFH-D), as well as Cas9 protein, were also titrated in CD34+ hHSPCs. […]
# The deletion frequency was determined by droplet digital PCR (ddPCR) two days after electroporation for each of the cells electroporated with HPFH5-1+HPFH5-D gRNAs, or cells electroporated with HPFH5-5+HPFH5-D gRNAs.
# CD34+ hHSPCs [5] = test: Cell viability by Trypan blue
# Description: Cell viability was also assessed using Trypan blue, a standard method for detecting hematopoietic stem cell viability.
# HPFH5 [6] = test: Single gRNA and Cas9 titration, single guide editing percentage in CD34+ hHSPCs; details: 48 hour post-electroporation
# Text: Single HPFH5-1, HPFH5-5 and HPFH5-D gRNAs, as well as Cas9 protein, were titrated in CD34+ hHSPCs to determine the effects on deletion efficiency.
# [7] = HPFH5-1 + HPFH5-D gRNAs/Cas9 + 2.5 μM Nu7441
# [8] = HPFH5-1 + HPFH5-D gRNAs/Cas9 + 2.5 μM Nu7441, colonies after 14 days
molecule,measurement,setting,value
"COc1ccc([C@@H](O)c2cc(-c3ncnc4cc(N5CCOCC5)ccc34)c(F)cc2Cl)nn1 [M3814, (S)-(2-chloro-4-fluoro-5-(7-morpholinoquinazolin-4-yl)phenyl)(6-methoxypyridazin-3-yl)methanol]",percentage of deletions in CCR5,"CCR5 gene; four concentrations from 0.078 μM to 0.625 μM, TB74+TB25 or TB48+TB25 gRNAs, 48 hours post electroporation",increased in a dose-dependent manner
same,percentage increase in deletions in CCR5 compared with Nu7441,CCR5 gene; highest concentration (0.625 μM),about the same percentage increase in deletions as Nu7441
"O=c1cc(N2CCOCC2)oc2c(-c3cccc4c3sc3ccccc34)cccc12 [Nu7441, 8-(4-dibenzothienyl)-2-(4-morpholinyl)-4H-1-benzopyran-4-one]",increase of percentage of HPFH5 heterozygotes relative to untreated cells,HPFH5 [1]; 2.5 μM Nu7441,3 fold
same,% Alleles edited from clones,HPFH5 [1]; [7],40%
same,% Edited cells,HPFH5 [1]; [7],63%
same,Bulk editing from ddPCR,HPFH5 [1]; [7],43%
same,% Heterozygotes,HPFH5 [1]; [8],46.2%
same,% Homozygotes,HPFH5 [1]; [8],17.3%
same,% WT,HPFH5 [1]; [8],36.5%
same,# Edited alleles,"HPFH5 [1]; HPFH5-1 + HPFH5-D gRNAs/Cas9 + 2.5 μM Nu7441, of 104 total alleles (52 clones)",42
same,increase of number of alleles edited from clones,HPFH5 [1]; in the presence of Nu7441 (2.5 μM),2 fold
same,cell proliferation (fold growth),"CD34+ hHSPCs [2]; concentrations of less than 5 μM, 48 hours post electroporation",did not adversely affect cell proliferation
same,cell proliferation,CD34+ hHSPCs [2]; highest concentration (5 μM),reduced
same,frequency of deletion in CCR5,"CCR5 gene; TB48 + TB7 gRNAs (735 bp deletion), 0, 1.25, 2.5, 5 μM, two days after electroporation",increased the frequency of deletion in CCR5 in a dose-dependent manner
same,increase of percent of deletions in CCR5,"CCR5 gene; TB48 + TB7 gRNAs, highest dose (5 μM)",more than two-fold
same,increase of the percent of deletions in CCR5,"CCR5 gene; TB74 + TB25 (5700 bp) and TB48 + TB25 (2672 bp) gRNAs, 0.75 or 1.5 μg each, 2.5 or 5 μM, all conditions",20-70%
same,potential microhomology-mediated end joining (MMEJ) species,HPFH5 [3]; Cas9 and HPFH5 gRNA,increased
same,effect on single guide editing (indel frequency),"HPFH5 [3]; HPFH5-1 gRNA 1.5 μg + Cas9 1.5 μg, 0.625-5 μM",not major effects
same,effect on indel frequency,"HPFH5 [3]; HPFH5-D gRNA 1.5 μg + Cas9 1.5 μg, higher concentrations",increased indel frequency
same,number of wild-type sequences in HPFH5 relative to untreated cells,"HPFH5 [3]; HPFH5-D gRNA, 5 μM",decrease
same,percentage of 10-15 base pair deletions relative to untreated cells,"HPFH5 [3]; HPFH5-D gRNA, 5 μM",increase
same,HPFH5 deletion efficiency reached with Nu7441,HPFH5 [4],45% and 40%
same,cell viability,"CD34+ hHSPCs [5]; CCR5 editing with TB48 + TB7 gRNAs, highest concentration (5 μM)",decreased slightly
same,cell viability,"CD34+ hHSPCs [5]; concentrations of less than 5 μM, 48 hours post electroporation, HPFH5 dual gRNAs",did not adversely affect cell viability
same,cell viability,"CD34+ hHSPCs [5]; highest dose 5 μM, HPFH5 dual gRNAs",slightly reduced
B1,% Single Guide Editing,"HPFH5 [6]; gRNA 1 μg, Cas9 1 μg",40.5%
same,% Single Guide Editing,"HPFH5 [6]; gRNA 2 μg, Cas9 2 μg",56.5%
same,% Single Guide Editing,"HPFH5 [6]; gRNA 3 μg, Cas9 3 μg",60.3%
same,% Single Guide Editing,"HPFH5 [6]; gRNA 4 μg, Cas9 4 μg",66.3%
B2,% Single Guide Editing,"HPFH5 [6]; gRNA 1 μg, Cas9 1 μg",35.6%
same,% Single Guide Editing,"HPFH5 [6]; gRNA 2 μg, Cas9 2 μg",62.9%
same,% Single Guide Editing,"HPFH5 [6]; gRNA 3 μg, Cas9 3 μg",72.1%
same,% Single Guide Editing,"HPFH5 [6]; gRNA 4 μg, Cas9 4 μg",75.7%
B3,% Single Guide Editing,"HPFH5 [6]; gRNA 1 μg, Cas9 1 μg",20.8%
same,% Single Guide Editing,"HPFH5 [6]; gRNA 2 μg, Cas9 2 μg",61.4%
same,% Single Guide Editing,"HPFH5 [6]; gRNA 3 μg, Cas9 3 μg",70.9%
same,% Single Guide Editing,"HPFH5 [6]; gRNA 4 μg, Cas9 4 μg",80.4%
